Measurements: ChEMBL document CHEMBL1149540, “Synthesis and in vitro protozoocidal activity of diazabicyclic benzotropolone derivatives” (Bioorg Med Chem Lett, 2007)
≈ marks a conversion by molar mass, not a printed value.

What was measured:
[1] = Cytotoxicity against KB cells; type: cell-based; settings: human, read-out: ED50 (the source's name)
Leishmania donovani = experiment: Inhibition of Leishmania donovani; type: functional, organism-based
Trypanosoma cruzi = experiment: Inhibition of Trypanosoma cruzi; type: functional, organism-based
[2] = Therapeutic index, ratio of IC50 for Leishmania donovani to ED50 for KB cells; type: cell-based; settings: human, read-out: TI
[3] = Therapeutic index, ratio of IC50 for Trypanosoma cruzi to ED50 for KB cells; type: cell-based; settings: human, read-out: TI

Row | SMILES | IC50 (Leishmania donovani) | IC50 (Trypanosoma cruzi) | CC50 [1] | selectivity ratio [2] | selectivity ratio [3]
1 | COC(=O)N1[C@@H]2C=C[C@@](OC)(C(=O)c3c2cc(OC)c(OC)c3OC)N1C(=O)OC | > 71 µM | > 71 µM | > 300 µg/mL | – | –
2 | COc1cc2c(c(OCc3ccc(F)cc3)c1OC)C(=O)[C@]1(OC)C=C[C@H]2N(C(=O)OC(C)C)N1C(=O)OC(C)C | > 52.4 µM | 18 µM | > 300 µg/mL | – | –
3 | COC(=O)N1[C@@H]2C=C[C@@](OC)(C(=O)c3c2cc(OC)c(OC)c3OCc2ccccc2)N1C(=O)OC | > 60.2 µM | > 60.2 µM | > 300 µg/mL | – | –
4 | COC(=O)N1[C@@H]2C=C[C@@](OC)(C(=O)c3c2cc(OC)c(OC)c3OCc2ccc(F)cc2)N1C(=O)OC | > 58.1 µM | > 58.1 µM | 56.6 µg/mL (≈ 110 µM) | – | –
5 | COC(=O)N1[C@@H]2C=C[C@@](OC)(C(=O)c3c2cc(OC)c(OC)c3OCc2ccccc2F)N1C(=O)OC | > 58.1 µM | > 58.1 µM | 137 µg/mL (≈ 266 µM) | – | –
6 | COc1cc2c(c(OC)c1OC)C(=O)[C@]1(OC)C=C[C@H]2N(C(=O)OC(C)C)N1C(=O)OC(C)C | > 62.7 µM | > 62.7 µM | > 300 µg/mL | – | –
7 | COc1cc2c(c(OCc3ccccc3)c1OC)C(=O)[C@]1(OC)C=C[C@H]2N(C(=O)OC(C)C)N1C(=O)OC(C)C | > 54.1 µM | 12.1 µM | 94 µg/mL (≈ 169 µM) | – | –
8 | COC(=O)N1[C@@H]2C=C[C@@](OC)(C(=O)c3c2cc(OC)c(OC)c3OCc2ccc(OC)cc2)N1C(=O)OC | > 56.8 µM | > 56.8 µM | > 300 µg/mL | – | –
9 | COc1cc2c(c(OCc3ccccc3F)c1OC)C(=O)[C@]1(OC)C=C[C@H]2N(C(=O)OC(C)C)N1C(=O)OC(C)C | > 52.4 µM | 9.5 µM | 109 µg/mL (≈ 190 µM) | – | –
10 | COc1cc2c(c(OCc3ccc(Cl)cc3)c1OC)C(=O)[C@]1(OC)C=C[C@H]2N(C(=O)OC(C)C)N1C(=O)OC(C)C | 47.4 µM | < 1.9 µM | 42 µg/mL (≈ 71.3 µM) | – | 37.6
11 | COc1ccc(COc2c(OC)c(OC)cc3c2C(=O)[C@]2(OC)C=C[C@H]3N(C(=O)OC(C)C)N2C(=O)OC(C)C)cc1 | > 51.3 µM | 9.8 µM | 47.9 µg/mL (≈ 81.9 µM) | – | –
12 | COC(=O)N1[C@@H]2C=C[C@@](OC)(C(=O)c3c2cc(OC)c(OC)c3O)N1C(=O)OC | > 73.5 µM | > 73.5 µM | > 300 µg/mL | – | –
13 | COC(=O)N1[C@@H]2C=C[C@@](OC)(C(=O)c3c2cc(OC)c(OC)c3OCc2ccc(Cl)cc2)N1C(=O)OC | > 56.3 µM | 50.9 µM | 55.9 µg/mL (≈ 105 µM) | – | –
14 | CCCOc1c(OC)c(OC)cc2c1C(=O)[C@]1(OC)C=C[C@H]2N(C(=O)OC(C)C)N1C(=O)OC(C)C | > 59.2 µM | 42.3 µM | 299 µg/mL (≈ 590 µM) | – | –
15 | CCCCOc1c(OC)c(OC)cc2c1C(=O)[C@]1(OC)C=C[C@H]2N(C(=O)OC(C)C)N1C(=O)OC(C)C | > 57.6 µM | 23.4 µM | 22.1 µg/mL (≈ 42.5 µM) | – | –
16 | COc1cc2c(c(O)c1OC)C(=O)[C@]1(OC)C=C[C@H]2N(C(=O)OC(C)C)N1C(=O)OC(C)C | > 64.6 µM | > 64.6 µM | > 300 µg/mL | – | –
17 | O=C(Cn1ccnc1[N+](=O)[O-])NCc1ccccc1 [BENZNIDAZOLE] | – | 8.7 µM | – | – | –

Second part, led by results:

Row | IC50 (Leishmania donovani) | IC50 (Trypanosoma cruzi) | SMILES | CC50 [1] | selectivity ratio [2] | selectivity ratio [3]
18 | > 68.8 µM | > 68.8 µM | CCOc1c(OC)c(OC)cc2c1C(=O)[C@]1(OC)C=C[C@H]2N(C(=O)OC)N1C(=O)OC | > 300 µg/mL | – | –
19 | > 64.6 µM | > 64.6 µM | CCOC(=O)N1[C@@H]2C=C[C@@](OC)(C(=O)c3c2cc(OC)c(OC)c3OCC)N1C(=O)OCC | > 300 µg/mL | – | –
20 | > 62.7 µM | > 62.7 µM | CCCOc1c(OC)c(OC)cc2c1C(=O)[C@]1(OC)C=C[C@H]2N(C(=O)OCC)N1C(=O)OCC | > 300 µg/mL | – | –
21 | > 57 µM | 54.1 µM | CCOC(=O)N1[C@@H]2C=C[C@@](OC)(C(=O)c3c2cc(OC)c(OC)c3OCc2ccccc2)N1C(=O)OCC | 215 µg/mL (≈ 409 µM) | – | –
22 | > 55.1 µM | 51.3 µM | CCOC(=O)N1[C@@H]2C=C[C@@](OC)(C(=O)c3c2cc(OC)c(OC)c3OCc2ccc(F)cc2)N1C(=O)OCC | 51.8 µg/mL (≈ 95.1 µM) | – | –
23 | > 53.5 µM | 83.8 µM | CCOC(=O)N1[C@@H]2C=C[C@@](OC)(C(=O)c3c2cc(OC)c(OC)c3OCc2ccc(Cl)cc2)N1C(=O)OCC | 99.9 µg/mL (≈ 178 µM) | – | –
24 | 9.9 µM | > 53.9 µM | CCOC(=O)N1[C@@H]2C=C[C@@](OC)(C(=O)c3c2cc(OC)c(OC)c3OCc2ccc(OC)cc2)N1C(=O)OCC | 63.1 µg/mL (≈ 113 µM) | – | –
25 | > 60.9 µM | > 60.9 µM | CCOc1c(OC)c(OC)cc2c1C(=O)[C@]1(OC)C=C[C@H]2N(C(=O)OC(C)C)N1C(=O)OC(C)C | > 300 µg/mL | – | –
26 | 8.6 µM | 54.1 µM | CCOC(=O)N1[C@@H]2C=C[C@@](OC)(C(=O)c3c2cc(OC)c(OC)c3OCc2ccccc2F)N1C(=O)OCC | 99.7 µg/mL (≈ 183 µM) | 21.3 | –
27 | > 66.6 µM | > 66.6 µM | CCCOc1c(OC)c(OC)cc2c1C(=O)[C@]1(OC)C=C[C@H]2N(C(=O)OC)N1C(=O)OC | > 300 µg/mL | – | –
28 | > 64.6 µM | 57.4 µM | CCCCOc1c(OC)c(OC)cc2c1C(=O)[C@]1(OC)C=C[C@H]2N(C(=O)OC)N1C(=O)OC | > 300 µg/mL | – | –
29 | > 60.9 µM | > 60.9 µM | CCCCOc1c(OC)c(OC)cc2c1C(=O)[C@]1(OC)C=C[C@H]2N(C(=O)OCC)N1C(=O)OCC | 76 µg/mL (≈ 154 µM) | – | –
